Measurements: publication PMC6222789, “CF3-Substituted Mollugin 2-(4-Morpholinyl)-ethyl ester as a Potential Anti-inflammatory Agent with Improved Aqueous Solubility and Metabolic Stability” (Molecules : A Journal of Synthetic Chemistry and Natural …, 2018)
Where two headings read alike, the source gives them in different places.

How the values were obtained:
[1] = tested on: TNF-α-induced adhesion of U937 monocytic cells to HT-29 cells; set-up: method as in PMID 19765578; settings: cell adhesion assay and IBD animal model; cited from earlier work
[2] = Plasma stability, human plasma; type: in vitro ADME; settings: 37 °C, 1 μM
Procedure: (§1) The plasma stability assay was performed by incubation of human or rat plasma with a test compound in a final concentration of 1 μM for 120 min at 37 °C. The incubation was terminated by addition of 40 μL of ice-cold acetonitrile and vortexing for 5 min. The precipitated proteins were removed by centrifugation at 14,000× g for 5 min at 4 °C. Aliquots of the supernatant were injected onto a Shimadzu Nexera XR LC system. Percentages of the parent compound remaining were calculated by comparing peak areas using the Xcalibur software (version 1.6.1, Waltham, MA, USA).

[3] = Metabolic stability, human liver microsomes; type: in vitro ADME; settings: 1 μM
Procedure: (§2) Pooled human liver microsomes (150 donor) and dog, rat, mouse liver microsomes were obtained from BD Gentest Co. (Woburn, MA, USA). NADPH regeneration system was obtained from Promega. S-Mephenytoin, 4-hydroxymephenytoin, and 1’-hydroxymidazolam were purchased from Ultrafine Chemical Co. (Manchester, UK). All other chemicals and solvents were of the highest grade available. The metabolic stability assay was performed by incubation of human or selected animal liver microsomes (most often dog, rat and mouse), at 37 °C with a test compound at a final concentration of 1 μM, in the presence of 0.5 mg/mL microsomal protein and NADPH regeneration system, in a total volume of 100 μL of 100 mM phosphate buffer, pH 7.4. The incubation was started by the addition of NADPH regeneration system and terminated with 40 μL of ice-cold acetonitrile at 0 and 30 min. Precipitated proteins were removed by centrifugation at 10,000× g for 5 min at 4 °C. Aliquots of the supernatant were injected onto an LC-MS/MS system. Incubations terminated prior to the addition of NADPH regeneration system (time point 0 min) were used as standards, defined as 100%. Percent of the parent compound remaining was calculated by comparing peak area.

[4] = Plasma stability, rat plasma; type: in vitro ADME; settings: for Plasma Stability (% Remain, 2 h) Rat: 37 °C, 1 μM
Procedure: as §1

hERG channel = target: T1, hERG channel (Homo sapiens, UniProt Q12809); test: hERG channel binding assay (fluorescence polarization)
T1 construct: purchased Invitrogen PV5365
Procedure: hERG channel binding assay was performed using Invitrogen’s hERG Fluorescence Polarization Assay kit (PV5365) with Synergy Neo plate reader (BioTek, Winooski, VT, USA). The binding assay was carried out according to the kit manufacturer’s instructions.

[5] = tested on: IL-6-induced adhesion of U937 monocytic cells to HT-29 cells; test: IL-6-induced colonic epithelial cell adhesion assay; type: cell-based, human
Procedure: (§3) Synthesized mollugin derivatives were subjected to the colonic epithelial cell adhesion assay, which mimics the initial stage of colon inflammation. The inhibition of TNF-α-induced or IL-6-induced adhesion of U937 monocytic cells to HT-29 cells in 10 μM solution of synthesized molecules was measured, and the results are summarized in Table 1 and Table 2. Mesalazine (2), a commercially available medication for the treatment of IBD, and mollugin were chosen as assay positive controls.
(§4) HT-29 human colonic epithelial cells and U937 human pre-monocytic cells were grown in RPMI 1640 medium supplemented with 10% FBS, 100 IU/mL penicillin, and 100 µg/mL streptomycin in a humidified incubator under 5% CO2/95% air.
(§5) U937 monocytic cell adhesion to colonic epithelial cells was evaluated using human U937 pre-monocytic cells, which were prelabeled with 2′,7′-bis(2-carboxyethyl)-5(6)-carboxyfluorescein acetoxymethyl ester (BCECF/AM, 10 μg/mL) for 1 h at 37 °C. HT-29 cells cultured in 24-well plates were pretreated with test compound, 5-ASA, or tofacitinib for 1 h prior to incubation with TNF-α (10 ng/mL) and IL-6 (5 ng/mL) for an additional 3 h. Cells were then co-incubated with BCECF/AM-prelabeled U937 cells (1 × 10^6 cells/well) for 30 min at 37 °C. Non-adhering U937 cells were removed, and the HT-29 cells and adherent U937 cells were washed twice with PBS. Images were captured and processed with a Nikon ECLIPSE TE2000-U microscope and NIS-Elements F software (Nikon, Tokyo, Japan). For quantitative analysis, other sets of cells were lysed in 0.1% Triton X-100 in Tris (0.1 M), and the fluorescence was measured using a fluorescence-detecting microplate reader (Promega , Madison, WI, USA) at […]. Experiments were performed in triplicate and repeated at least three times independently.

[6] = Metabolic stability, dog liver microsomes; type: in vitro ADME; settings: for Metabolic Stability (% Remain, 30 min) Dog: 1 μM
Procedure: as §2

[7] = tested on: TNF-α-induced adhesion of U937 monocytic cells to HT-29 cells; test: TNF-α-induced colonic epithelial cell adhesion assay; type: cell-based, human
Procedure: as §3, §4, §5

[8] = Metabolic stability, mouse liver microsomes; type: in vitro ADME; settings: for Metabolic Stability (% Remain, 30 min) Mouse: 1 μM
Procedure: as §2

[9] = Metabolic stability, rat liver microsomes; type: in vitro ADME; settings: for Metabolic Stability (% Remain, 30 min) Rat: 1 μM
Procedure: as §2

Serum Amyloid A (SAA) = test: Serum SAA level in DSS-induced colitis mouse model (ELISA); type: in vivo; settings: 4% DSS-induced mouse model; mesalazine 20 mM; ELISA
Procedure: The level of Serum Amyloid A (SAA) was measured using a mouse SAA ELISA kit according to the manufacturer’s instructions (E-90SAA, Immunology Consultants Laboratory, Inc., Portland, OR, USA). All samples were assayed in duplicate. The concentrations of SAA were determined by comparison to serial dilutions of purified SAA calibrator.
Figure 2 Analysis of mouse serum amyloid A (SAA) level. Effect of 6d on the level of SAA in the 4% dextran sulfate sodium (DSS)-induced mouse model. The level of SAA in serum was determined by ELISA. The control mice received water + vehicle (water), and the treated groups received 4% DSS + vehicle or DSS with mesalazine (20 mM), 6d (10 μM), or 15c (10 μM). TEXT PRINTED IN THE PICTURE: vehecle: mSS assay (ng/ml): 252.08 | vehecle: mSS assay (ng/ml): 732.93 (4% DSS) | 2: mSS assay (ng/ml): 788.86 (4% DSS) | 6d: mSS assay (ng/ml): 295.77 (4% DSS) | 15c: mSS assay (ng/ml): 300.95 (4% DSS)

[10] = Homo sapiens, Epithelial cell, U937 adhesion to HT-29 cells, IL-6-induced
[11] = Homo sapiens, Epithelial cell, U937 adhesion to HT-29 cells, TNF-α-induced
[12] = human, Invitrogen hERG Fluorescence Polarization Assay kit (PV5365)

T1 sequence (Q12809 whole entry): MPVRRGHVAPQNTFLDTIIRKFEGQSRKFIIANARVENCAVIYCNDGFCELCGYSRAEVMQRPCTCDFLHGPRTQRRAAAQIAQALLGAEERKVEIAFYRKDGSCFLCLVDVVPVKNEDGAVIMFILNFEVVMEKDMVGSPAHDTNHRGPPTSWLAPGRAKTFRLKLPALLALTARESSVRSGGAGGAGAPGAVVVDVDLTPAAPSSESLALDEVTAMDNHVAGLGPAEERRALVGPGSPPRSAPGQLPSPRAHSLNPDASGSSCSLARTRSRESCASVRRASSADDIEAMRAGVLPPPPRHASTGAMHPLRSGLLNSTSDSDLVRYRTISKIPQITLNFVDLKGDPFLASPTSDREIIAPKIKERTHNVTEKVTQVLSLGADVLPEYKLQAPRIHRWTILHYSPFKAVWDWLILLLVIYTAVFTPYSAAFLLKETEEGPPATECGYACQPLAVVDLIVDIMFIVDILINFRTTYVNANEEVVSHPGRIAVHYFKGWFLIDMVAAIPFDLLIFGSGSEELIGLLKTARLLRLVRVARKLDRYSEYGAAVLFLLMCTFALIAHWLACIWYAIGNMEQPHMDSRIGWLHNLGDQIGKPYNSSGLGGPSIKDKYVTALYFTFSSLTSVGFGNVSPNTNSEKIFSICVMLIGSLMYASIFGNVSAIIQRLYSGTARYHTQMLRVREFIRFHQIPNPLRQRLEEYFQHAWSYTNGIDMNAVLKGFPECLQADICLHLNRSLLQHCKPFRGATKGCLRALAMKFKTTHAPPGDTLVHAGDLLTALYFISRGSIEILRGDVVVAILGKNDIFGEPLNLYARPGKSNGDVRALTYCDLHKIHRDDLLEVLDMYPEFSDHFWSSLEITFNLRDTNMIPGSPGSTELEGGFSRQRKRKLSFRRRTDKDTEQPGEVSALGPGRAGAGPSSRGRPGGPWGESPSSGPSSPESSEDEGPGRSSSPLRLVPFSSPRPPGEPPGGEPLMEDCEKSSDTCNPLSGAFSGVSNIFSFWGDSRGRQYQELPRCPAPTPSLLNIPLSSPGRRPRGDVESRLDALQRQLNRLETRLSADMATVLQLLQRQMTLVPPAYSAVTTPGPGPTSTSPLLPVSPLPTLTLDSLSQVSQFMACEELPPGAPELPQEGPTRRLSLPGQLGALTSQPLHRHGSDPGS

SMILES | Plasma Stability (% Remain, 2 h) Human [2] [% Remain] | Metabolic Stability (% Remain, 30 min) Human [3] [% Remain] | Plasma Stability (% Remain, 2 h) Rat [4] [% Remain] | Metabolic Stability (% Remain, 30 min) Dog [6] [% Remain] | Metabolic Stability (% Remain, 30 min) Mouse [8] [% Remain] | Metabolic Stability (% Remain, 30 min) Rat [9] [% Remain] | IC50 (hERG channel) [µM] | inhibition at 10 µM [5, 10] [%] | inhibition at 10 µM [7, 11] [%] | other results
CN1CCN(CCCOC(=O)c2c3c(c4ccccc4c2O)OC(C)(C)C=C3)CC1 [6i, 3-(4-Methylpiperazin-1-yl)propyl 6-hydroxy-2,2-dimethyl-2H-benzo[h]chromene-5-carboxylate] | – | – | – | – | – | – | 5.3 | 27.6 ± 4.2 | 58.5 ± 6.4 | IC50 (hERG channel; [12]): 5 µM
CC1(C)C=Cc2c(C(=O)OCCCN3CCOCC3)c(O)c3ccccc3c2O1 [6e, 3-Morpholinopropyl 6-hydroxy-2,2-dimethyl-2H-benzo[h]chromene-5-carboxylate] | 100 | 36 | 94 | 42 | 24 | 16 | > 10 | 26.6 ± 5.1 | 40.1 ± 3.5 | –
Nc1ccc(O)c(C(=O)O)c1 [compound 2, 5-Aminosalicylic acid, reference compound] | – | – | – | – | – | – | – | – | – | inhibition at 20000 µM ([5]; Homo sapiens, Epithelial cell, at 20 mM, U937 adhesion to HT-29 cells, IL-6-induced): ~30%; % Inhibition IL-6 ([5]; at 20 mM, U937 adhesion to HT-29 cells, IL-6-induced, listed as 2 (5-ASA)): 32.6 ± 7.3 (at 20 mM) %; inhibition at 20000 µM ([7]; Homo sapiens, Epithelial cell, at 20 mM, U937 adhesion to HT-29 cells, TNF-α-induced): ~30%; % Inhibition TNF-α ([7]; at 20 mM, U937 adhesion to HT-29 cells, TNF-α-induced, listed as 2 (5-ASA)): 28.8 ± 7.7 (at 20 mM) %; serum SAA level (mSS assay) (Serum Amyloid A (SAA)): 788.86 ng/mL

More lines, main results first:

Plasma Stability (% Remain, 2 h) Human [2] [% Remain] | Metabolic Stability (% Remain, 30 min) Human [3] [% Remain] | Plasma Stability (% Remain, 2 h) Rat [4] [% Remain] | Metabolic Stability (% Remain, 30 min) Dog [6] [% Remain] | Metabolic Stability (% Remain, 30 min) Mouse [8] [% Remain] | Metabolic Stability (% Remain, 30 min) Rat [9] [% Remain] | SMILES | IC50 (hERG channel) [µM] | inhibition at 10 µM [5, 10] [%] | inhibition at 10 µM [7, 11] [%] | other results
92 | 33 | 16 | 33 | 40 | 19 | COC(=O)c1c2c(c3ccccc3c1O)OC(C)(C)C=C2 [compound 1, mollugin] | > 10 | 40.8 ± 6.2 | 37.8 ± 5.7 | improved efficacy over mesalazine [1]: at least 1000 fold; stability in rat plasma [4]: unstable; metabolic stability with dog liver microsomes [6]: generally unstable; metabolic stability with mouse liver microsomes [8]: generally unstable; metabolic stability with rat liver microsomes [9]: generally unstable
100 | 78 | 100 | 36 | 14 | 23 | CN1CCC(OC(=O)c2c3c(c4ccccc4c2O)OC(C)(C)C=C3)CC1 [6g, 1-Methylpiperidin-4-yl 6-hydroxy-2,2-dimethyl-2H-benzo[h]chromene-5-carboxylate] | > 10 | 38.9 ± 5 | 54.8 ± 5.2 | –
100 | 58 | 99 | 12 | 11 | 13 | CN1CCC[C@@H]1COC(=O)c1c2c(c3ccccc3c1O)OC(C)(C)C=C2 [6f, (R)-(1-Methylpyrrolidin-2-yl)methyl 6-hydroxy-2,2-dimethyl-2H-benzo[h]chromene-5-carboxylate] | > 10 | 38.2 ± 5.1 | 48.3 ± 6.2 | –
79 | 76 | 89 | 11 | 9 | 23 | CN1CCN(CCOC(=O)c2c3c(c4ccccc4c2O)OC(C)(C)C=C3)CC1 [6h, 2-(4-Methylpiperazin-1-yl)ethyl 6-hydroxy-2,2-dimethyl-2H-benzo[h]chromene-5-carboxylate] | 3.3 | 18.2 ± 3.1 | 42.2 ± 6.4 | IC50 (hERG channel; [12]): 3 µM; inhibition of IL-6-induced monocyte-epithelial adhesion ([5]; 10 μM): reduced % inhibition; inhibition of TNF-α-induced monocyte-epithelial adhesion ([7]; 10 μM): good % inhibition
